{
  "source": "patent US20180311124A1",
  "about": "“CLIMBAZOLE MICROCAPSULE AND HAIR CARE COMPOSITION COMPRISING SURFACTANT AND CLIMBAZOLE” (priority 2015, published 2018)",
  "key": {"[1]": {"test": "Screen of perfume components, perfume mixtures and oils for ability to solubilise climbazole", "from_the_text": "A number of perfume components, perfume mixtures and oils considered to be safe to use on scalp were screened to evaluate their ability to solubilise climbazole. Because emulsion polymerisation also encapsulates the solvent an efficient solvent is needed to get a high loading of climbazole into a microcapsule."}, "[2]": {"conditions": "manufacturer's published literature; cited from earlier work"}, "[3]": {"system": "M. Furfur", "test": "ZOI test comparing with PS latex (Example 5)", "format": "cell-based, Malassezia furfur", "conditions": "ruptured by rubbing; 1 g shampoo of table 3 diluted with 3.9 g water and 0.1 g model sebum", "method": "Zone of Inhibition (ZOI) Method • 1. L&N agar plates were appropriately labelled. • 2. 0.25 ml or 1 ml of quarter strength inoculum was pipetted onto the surface of each plate. • 3. The inoculum was spread evenly over the whole surface of the plates using a sterile spreader. • 4. Filter paper discs were added, in triplicate to the control plate and plates labelled 1 to 5 unruptured and left for 30 minutes in order to soak up any moisture from the agar. • 5. 15 μl of each (diluted, unruptured) formulation were pipetted onto each of the 3 discs in the appropriate agar plate. The liquid was allowed to soak into the disc. • 6. An additional disc was placed over the original discs in the control and 1 to 5 unruptured plates and the liquid allowed to soak into the additional discs. • 7. The discs from the previously ruptured samples were added in triplicate to separate Leeming and Notman agar plates and allowed to absorb moisture from the plates. • 8. […] Any zone of inhibition observed was measured and recorded.\nThe efficacy of climbazole microcapsules on the growth of M. Furfur measured using Zone of Inhibition (ZOI) when the microcapsules had been ruptured by simple rubbing to simulate hair washing was tested both for the solvent containing core shell microcapsules according to the invention and the latex particles according to the prior art. […]"}},
  "note": "Where two headings read alike, the source gives them in different places.",
  "data": [
    {"compound": "CC(=O)OCc1ccccc1", "note": "[Benzyl Acetate]", "values": [
      {"measurement": "ratio of solvent to climbazole", "setting": "[1]", "value": "5:1"}
    ]},
    {"compound": "CC(C)(C)C(=O)C(Oc1ccc(Cl)cc1)n1ccnc1", "note": "(racemic) [climbazole, (RS)-1-(4-Chlorophenoxy)-1-imidazol-1-yl-3,3-dimethylbutan-2-one]", "values": [
      {"measurement": "solubility", "setting": "[2]", "value": "soluble in alcohol, glycols, surfactants and certain perfume oils"},
      {"measurement": "Ruptured mean ZOI (mm)", "setting": "[3]", "value": "1.00^1 mm"}
    ]},
    {"compound": "CC(O)CO", "note": "(stereo not drawn) [propylene glycol]", "values": [
      {"measurement": "ability to solubilise climbazole", "setting": "[1]", "value": "failed to solubilise it at any ratio tested"}
    ]},
    {"compound": "CCOC(=O)C=Cc1ccccc1", "note": "[Ethyl Cinnamate]", "values": [
      {"measurement": "ability to solubilise climbazole", "setting": "[1]; solvent screened at the solvent:climbazole ratios tested", "value": "failed to solubilise it at any ratio tested"}
    ]},
    {"compound": "Coconut oil", "values": [
      {"measurement": "ability to solubilise climbazole", "setting": "[1]", "value": "failed to solubilise it at any ratio tested"}
    ]}
  ]
}
